Converted amounts (≈) assume the structure as drawn. Read-outs that look alike come from different tables or passages of the source.
How the values were obtained:
[1] = Kinetics of lactone ring opening in PBS buffer (HPLC); assay type: physicochemical; conditions: for % Lactone at Equilibrium: PBS
[2] = Kinetics of lactone ring opening in RBC (HPLC); assay type: in vitro ADME, human; conditions: RBC
Text: Kinetics of Lactone Ring Opening. […] Mi and Burke (1994), supra. […] Louis, Mo.) was used.

[3] = system: MDA-MB-435 tumorigenic metastatic human breast cancer cells; assay: cells; assay type: cell-based; conditions: Homo sapiens, MDA-MB-435 cells, 72 hrs exposure
Method: Cells. […] The cells were exposed to a range of drug concentrations for 72 hr exposure periods and then viability was assessed using a sulphorrhodamine B (SRB) assay. SRB assays were performed using a standard assay.
Sulphorhodamine B (SRB) assay was used. This assay measures the total protein levels in the living cells. Proteins from dead cells are lysed and removed in the washing step before TCA fixation. However, it is possible that cells in the early stage of death still have their membrane integrity and therefore retain the protein contents inside. As a result, the optical density at 490 nm can sometimes be overestimated and the cytotoxicity underestimated. […] The SRB assay is now a well regarded assay and was recently approved by NCI as a standard assay for anticancer drug screening.

[4] = Blood levels of DB-67 after intrastomach dosing; assay type: in vivo; conditions: 5 mg/kg intrastomach injection in DMSO; samples at 30 min, 1 hr, 2 hr, 4 hr
Method: To evaluate the blood levels achieved following dosing at 5 mg/kg, four animals were given 0.1 ml intrastomach injections of DB-67 dissolved in DMSO. The stock contained DB67 at a concentration of 1.6 mg/ml. At time points of 30 min, 1 hr, 2 hr, and 4 hr, 1 ml samples of blood were drawn and collected by heart puncturing. The samples were centrifuged for 3 min and stored frozen until analysis was carried out.

[5] = Self-association in aqueous solution (fluorescence intensity with time); assay type: physicochemical; conditions: lactone drug forms added to solution, time=0
Method: FIG. 22 summarizes the dependence of the fluorescence intensity of DB172 as a function of time and pH. In these experiments DB172 is added to solution as the lactone form. At low pH where the drug remains in the lactone form, the change in intensity with time is the lowest. At pH 10, where the conditions are such that the lactone more readily hydrolyzes and forms carboxylate, a significant change in fluorescence intensity is observed. It appears that a pH 10 nonfluorescent micellular aggregates composed of lactone disassemble and form open-ring carboxylate forms that tend to exist in solution as monomeric fluorescent species.
FIG. 23 explores the fluorescence intensity of DB172 as a function of concentration. Following the addition of low concentration of lactone drug to solution, the change in fluorescence signal is the greatest whereas at high drug concentration (10 ^μM) the fluorescence intensity changes are minimal. It is believed that a low concentration the micellular aggregates of DB172 displaying reduced fluorescence can disassemble and form fluorescent carboxylate species, but at higher drug concentration the equilibrium favors that the agent remains in the aggregated or reduced fluorescence state. […] Once again this decrease in fluorescence that occurs at reduced pH appear to be due to the formation of lactone aggregates of reduced fluorescence quantum yield.
FIGS. 21 through 24 are consistent with the unusual ability of DB172 lactone to self-associate and form micelles at micromolar drug concentrations. The micellular DB172 aggregates display a reduced fluorescence. If conditions allow for hydrolysis to occur such that carboxylate forms, there is an increase in the fluorescence intensity of the sample. FIG. 25 compares the relative change in the fluorescence emission of a sample following addition of lactone drug forms to solution. In these experiments the values for each drug are normalized to a value of 1 at time equals to zero, and the ability of the various analogs to disassociate in the event the drugs are aggregated at time=0 is monitored with time. […]

[6] = in vitro; conditions: human
[7] = Kinetics of lactone ring opening in whole human blood (HPLC); conditions: Whole Blood, physiological temperature;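 further: hydrolytic opening of the camptothecin lactone ring followed over time by quantitative C18 reversed-phase HPLC in human whole blood at physiological temperature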
[8] = Kinetics of lactone ring opening in PBS containing HSA (HPLC); conditions: HSA (PBS containing 30 mg/ml HSA)
[9] = Equilibrium binding to DMPC small unilamellar vesicles (fluorescence anisotropy titration); conditions: for KDMPC overall association constant: PBS buffer at PH 7.4 and 37° C.
[10] = Equilibrium binding to DMPG small unilamellar vesicles (fluorescence anisotropy titration); conditions: for KDMPG overall association constant: PBS buffer at PH 7.4 and 37° C.
[11] = system: glioma cells (U87, A172, SG388, T98G, LN-Z308); assay: Inhibition of cell proliferation in glioma cell lines; assay type: cell-based; conditions: several lines of glioma cells (U87, A172, SG388, T98G, LN-Z308), read-out: median effective concentrations, inhibiting cell proliferation
[12] = absence of HSA, read-out: IC50 (w/o HSA)

## CC[C@@]1(O)C(=O)OCc2c1cc1n(c2=O)Cc2c-1nc1ccc(O)cc1c2[Si](C)(C)C(C)(C)C [DB-67, (20S)10-Hydroxy-7-tert-butyldimethylsilylcamptothecin]
[1]
  % Lactone at Equilibrium: 10.2 +/− 0.3%
[2]
  % Lactone at Equilibrium: 41.4 +/− 0.7%
  t1/2: 51.4 ± 0.5 min
[3]; [12]
  IC50: 0.007 µM
[3]; presence of 1 mg/ml HSA, read-out: IC50 (w/HSA)
  IC50: 0.022 µM
[4]
  DB67 levels in blood after oral dosage: > 40 ng/mL
[5]
  self-association / aggregation state in solution: much more likely to be found in solution as monomeric drug relative to DB172
[6]; whole blood
  half-life: 130 min
[7]
  % Lactone at Equilibrium: 30%
  t1/2: 133.0 ± 15.9 min
[7]; listed as DB 67
  % Lactone at Equilibrium: 30.5 +/− 1.9%
[8]
  % Lactone at Equilibrium: 10.5 +/− 2.0%
  t1/2: 119.0 ± 5.3 min
[9]
  KDMPC overall association constant: 2700 M⁻¹
[9]; relative to camptothecin
  K value for DMPC, fold greater than camptothecin: 27 fold
  times more lipophilic than camptothecin: 25 times
[10]
  KDMPG overall association constant: 2800 M⁻¹
[10]; relative to camptothecin
  K value for DMPG, fold greater than camptothecin: 28 fold

## CC[C@@]1(O)C(=O)OCc2c1cc1n(c2=O)Cc2c-1nc1ccc(O)cc1c2CC[Si](C)(C)C [DB-174, (20S)-10-Hydroxy-7-[(2-trimethylsilyl)ethyl]camptothecin]
[1]
  % Lactone at Equilibrium: 13.7 +/− 0.7%
[1]; buffer, pH 7.4
  half-life: 29.7 min
[3]; [12]
  IC50: 0.012 µM
[11]
  EC50: 0.01 to 0.1 µg/mL (≈ 0.0215 to 0.215 µM)
[6]; blood
  half-life: 40.3 min
[9]
  KDMPC overall association constant: 9000 M⁻¹
[9]; relative to camptothecin
  K value for DMPC, fold greater than camptothecin: ~90 fold
[10]
  KDMPG overall association constant: 6600 M⁻¹

Reference: patent US6743917B2, “Camptothecin analogs and methods of preparation thereof” (University of Pittsburgh, priority 1993, dated 2004)
